Laboratory results published in PubChem BioAssay (NCI).
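GI50: concentration for 50% inhibition of growth. TGI: total growth inhibition.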

Key:
Assay in all cases: DTP human tumour cell line panel, 384-well format
[1] = system: 786-0 renal
[2] = system: A498 renal
[3] = system: A549 NSCLC
[4] = system: ACHN renal
[5] = system: BT-549 breast
[6] = system: CAKI-1 renal
[7] = system: COLO 205 colon
[8] = system: EKVX NSCLC
[9] = system: HCT-116 colon
[10] = system: HCT-15 colon
[11] = system: HL-60(TB) leukemia
[12] = system: HOP-62 NSCLC
[13] = system: HOP-92 NSCLC
[14] = system: HS 578T breast
[15] = system: HT29 colon
[16] = system: IGROV1 ovarian
[17] = system: K-562 leukemia
[18] = system: KM12 colon
[19] = system: M14 melanoma
[20] = system: MALME-3M melanoma
[21] = system: MCF7 breast
[22] = system: MDA-MB-231 breast
[23] = system: MDA-MB-435 melanoma
[24] = system: MDA-MB-468 breast
[25] = system: MOLT-4 leukemia
[26] = system: NCI-H226 lung
[27] = system: NCI-H322M lung
[28] = system: NCI-H460 NSCLC
[29] = system: NCI-H522 lung
[30] = system: OVCAR-3 ovarian
[31] = system: OVCAR-4 ovarian
[32] = system: OVCAR-5 ovarian
[33] = system: OVCAR-8 ovarian
[34] = system: PC-3 prostate
[35] = system: RXF 393 renal
[36] = system: SF-268 CNS
[37] = system: SF-295 CNS
[38] = system: SF-539 CNS
[39] = system: SK-MEL-2 melanoma
[40] = system: SK-MEL-28 melanoma
[41] = system: SK-MEL-5 melanoma
[42] = system: SK-OV-3 ovarian
[43] = system: SN12C renal
[44] = system: SNB-19 CNS
[45] = system: SNB-75 CNS
[46] = system: SR leukemia
[47] = system: SW-620 colon
[48] = system: T-47D breast
[49] = system: TK-10 renal
[50] = system: U251 glioblastoma
[51] = system: UACC-257 melanoma
[52] = system: UACC-62 melanoma
[53] = system: UO-31 renal

Molecule `C=CCNC1=C2C[C@@H](C)C[C@H](OC)[C@H](O)[C@@H](C)/C=C(\C)[C@H](OC(N)=O)[C@@H](OC)/C=C\C=C(/C)C(=O)NC(=CC1=O)C2=O` has a GI50 [1] of 65.7 nM, a TGI [1] of 271 nM and a GI50 [2] of 34.5 nM. The TGI [2] was 12400 nM, the GI50 [3] was < 10 nM and the TGI [3] was 10500 nM. For the same molecule, the GI50 [4] was 83.2 nM, the TGI [4] was 12000 nM and the GI50 [5] was < 10 nM. The TGI [5] was 31.2 nM, the GI50 [6] was 140 nM and the TGI [6] was 14700 nM. For the same molecule, the GI50 [7] was < 10 nM, the TGI [7] was 11 nM and the GI50 [8] was 44.8 nM. It also gave a TGI [8] of 419 nM, a GI50 [9] of 36.5 nM and a TGI [9] of 8320 nM. The GI50 [10] was 51.9 nM, the TGI [10] was 5340 nM and the GI50 [11] was 31 nM. It also gave a TGI [11] of 169 nM, a GI50 [12] of 20.4 nM and a TGI [12] of 1750 nM. The GI50 [13] was 716 nM, the TGI [13] was 3140 nM and the GI50 [14] was < 10 nM. The TGI [14] was 20.2 nM, the GI50 [15] was < 10 nM and the TGI [15] was 10700 nM. For the same molecule, the GI50 [16] was 27.1 nM, the TGI [16] was 281 nM and the GI50 [17] was 27.6 nM. For the same molecule, the TGI [17] was 10300 nM, the GI50 [18] was < 10 nM and the TGI [18] was 11.5 nM. For the same molecule, the GI50 [19] was < 10 nM, the TGI [19] was 11400 nM and the GI50 [20] was < 10 nM. The TGI [20] was 282 nM, the GI50 [21] was < 10 nM and the TGI [21] was 41.6 nM. It also gave a GI50 [22] of 422 nM, a TGI [22] of 2240 nM and a GI50 [23] of 34 nM. For the same molecule, the TGI [23] was 13700 nM, the GI50 [24] was 180 nM and the TGI [24] was 733 nM. The GI50 [25] was 145 nM, the TGI [25] was 336 nM and the GI50 [26] was 33.3 nM. The TGI [26] was 440 nM, the GI50 [27] was < 10 nM and the TGI [27] was 10100 nM. For the same molecule, the GI50 [28] was < 10 nM, the TGI [28] was 1610 nM and the GI50 [29] was 13.6 nM. It also gave a TGI [29] of 47.4 nM, a GI50 [30] of 37.1 nM and a TGI [30] of 447 nM. For the same molecule, the GI50 [31] was 158 nM, the TGI [31] was 12000 nM and the GI50 [32] was 59.2 nM. It also gave a TGI [32] of 12600 nM, a GI50 [33] of 42.2 nM and a TGI [33] of 205 nM. The GI50 [34] was 22.9 nM, the TGI [34] was 124 nM and the GI50 [35] was 16.5 nM. The TGI [35] was 65.6 nM, the GI50 [36] was 27.4 nM and the TGI [36] was 11100 nM. The GI50 [37] was 21.9 nM, the TGI [37] was 121 nM and the GI50 [38] was 13.9 nM. The TGI [38] was 36.1 nM, the GI50 [39] was < 10 nM and the TGI [39] was 112 nM. The GI50 [40] was 29.5 nM, the TGI [40] was 15200 nM and the GI50 [41] was < 10 nM. It also gave a TGI [41] of 2900 nM, a GI50 [42] of 14.8 nM and a TGI [42] of 99.5 nM. For the same molecule, the GI50 [43] was 17.2 nM, the TGI [43] was 255 nM and the GI50 [44] was 50.8 nM. It also gave a TGI [44] of 10800 nM, a GI50 [45] of 13.8 nM and a TGI [45] of 73.8 nM. It also gave a GI50 [46] of 11 nM, a TGI [46] of 25.3 nM and a GI50 [47] of 16 nM. For the same molecule, the TGI [47] was 10900 nM, the GI50 [48] was 838 nM and the TGI [48] was 6160 nM. The GI50 [49] was 35.7 nM, the TGI [49] was 13500 nM and the GI50 [50] was 26.2 nM. For the same molecule, the TGI [50] was 167 nM, the GI50 [51] was 27.4 nM and the TGI [51] was 1350 nM. It also gave a GI50 [52] of 11.8 nM, a TGI [52] of 53.5 nM and a GI50 [53] of 340 nM. The TGI [53] was 12000 nM.
